Laboratory results as given in publication PMC4569258.
“Also recorded” adds a separate entry of the source. Where two headings read alike, the source gives them in different places.

Legend:
[1] = target: T1, pregnane X receptor (PXR) (Homo sapiens, UniProt O75469); settings: for effect on rifampicin-inducible PXR transcriptional activity, in words: antagonist mode, RIF 10 μM, 24 h
T1 sequence (O75469 1-434): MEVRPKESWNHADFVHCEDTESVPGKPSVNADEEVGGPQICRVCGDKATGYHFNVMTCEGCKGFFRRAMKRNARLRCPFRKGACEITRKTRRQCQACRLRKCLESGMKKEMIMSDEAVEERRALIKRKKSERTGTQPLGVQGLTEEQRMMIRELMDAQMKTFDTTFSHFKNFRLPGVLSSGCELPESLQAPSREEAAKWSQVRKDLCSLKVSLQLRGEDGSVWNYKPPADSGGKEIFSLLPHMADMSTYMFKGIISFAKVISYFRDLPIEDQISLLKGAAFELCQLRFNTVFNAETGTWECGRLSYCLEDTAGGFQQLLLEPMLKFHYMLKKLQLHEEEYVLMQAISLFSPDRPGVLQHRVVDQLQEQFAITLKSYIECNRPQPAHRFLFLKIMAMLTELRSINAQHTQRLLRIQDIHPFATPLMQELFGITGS

[2] = target: T2, glucocorticoid receptor (GR) (Homo sapiens, UniProt P04150); test: GR gene reporter assay in AZ-GR cells; format: cell-based; settings: antagonist mode, 24 h; for IC50: in presence of DEX 100 nM
T2 sequence (P04150 1-777): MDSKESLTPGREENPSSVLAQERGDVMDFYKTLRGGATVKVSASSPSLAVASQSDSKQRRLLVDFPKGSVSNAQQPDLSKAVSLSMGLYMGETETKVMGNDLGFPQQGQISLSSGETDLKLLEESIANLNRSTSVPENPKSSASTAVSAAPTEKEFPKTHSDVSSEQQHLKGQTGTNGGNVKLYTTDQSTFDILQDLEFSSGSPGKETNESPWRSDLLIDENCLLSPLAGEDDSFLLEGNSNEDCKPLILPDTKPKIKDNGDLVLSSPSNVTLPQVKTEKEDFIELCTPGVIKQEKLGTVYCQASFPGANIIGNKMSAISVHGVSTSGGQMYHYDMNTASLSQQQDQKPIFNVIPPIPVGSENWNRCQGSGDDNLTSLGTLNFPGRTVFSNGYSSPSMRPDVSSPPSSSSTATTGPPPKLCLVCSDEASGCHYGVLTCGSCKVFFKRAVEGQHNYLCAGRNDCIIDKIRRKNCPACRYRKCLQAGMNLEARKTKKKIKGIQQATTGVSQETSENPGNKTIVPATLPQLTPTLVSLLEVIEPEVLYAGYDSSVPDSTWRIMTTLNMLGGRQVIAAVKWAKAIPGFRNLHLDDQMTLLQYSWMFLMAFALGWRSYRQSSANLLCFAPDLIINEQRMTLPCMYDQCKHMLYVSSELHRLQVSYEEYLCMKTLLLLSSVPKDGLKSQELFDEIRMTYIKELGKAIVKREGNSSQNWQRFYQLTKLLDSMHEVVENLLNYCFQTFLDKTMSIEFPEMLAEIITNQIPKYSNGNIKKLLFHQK
Procedure: Transcriptional activity of GR was assessed in human gene reporter cell line AZ-GR incubated for 24 h with tested compounds. […] The vehicle was DMSO (0.1% v/v). […] Treatments were performed in triplicates.

CYP2A6 mRNA = settings: for induction of CYP2A6 mRNA: 10 μM
Procedure: (§3) Cells were cultured in serum-free medium.
(§4) Measurements were performed in triplicates.

[3] = target: T3, aryl hydrocarbon receptor (AhR) (Homo sapiens, UniProt P35869); test: cell-based
T3 sequence (P35869 11-848): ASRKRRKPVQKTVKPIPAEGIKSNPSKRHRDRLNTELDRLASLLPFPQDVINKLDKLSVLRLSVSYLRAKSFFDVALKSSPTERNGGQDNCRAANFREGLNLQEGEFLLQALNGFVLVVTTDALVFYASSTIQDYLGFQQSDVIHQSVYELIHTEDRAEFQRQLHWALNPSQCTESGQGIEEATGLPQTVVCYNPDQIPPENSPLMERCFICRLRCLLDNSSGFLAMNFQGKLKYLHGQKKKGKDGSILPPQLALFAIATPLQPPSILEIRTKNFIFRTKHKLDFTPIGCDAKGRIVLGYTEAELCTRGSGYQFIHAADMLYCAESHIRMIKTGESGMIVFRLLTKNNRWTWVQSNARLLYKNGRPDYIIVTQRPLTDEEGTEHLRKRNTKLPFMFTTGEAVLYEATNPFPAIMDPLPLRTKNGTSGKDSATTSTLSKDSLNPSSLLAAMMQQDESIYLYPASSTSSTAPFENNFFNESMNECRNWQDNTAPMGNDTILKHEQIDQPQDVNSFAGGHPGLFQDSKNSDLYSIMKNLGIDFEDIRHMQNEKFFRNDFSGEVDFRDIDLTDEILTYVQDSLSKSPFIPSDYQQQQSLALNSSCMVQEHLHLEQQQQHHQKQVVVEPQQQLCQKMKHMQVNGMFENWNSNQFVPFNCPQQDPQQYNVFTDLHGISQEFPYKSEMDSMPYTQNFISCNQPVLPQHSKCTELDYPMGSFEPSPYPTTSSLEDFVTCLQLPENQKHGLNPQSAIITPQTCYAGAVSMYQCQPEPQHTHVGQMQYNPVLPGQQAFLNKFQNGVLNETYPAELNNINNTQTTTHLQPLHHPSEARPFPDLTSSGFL
Procedure: (§5) A stably transfected gene reporter cell line AZ-AHR, derived from human hepatoma HepG2 cells transfected with a construct containing several AhR binding sites upstream of a luciferase reporter gene, was used for assessment of AhR transcriptional activity [20].
(§6) Transcriptional activity of AhR was assessed in human gene reporter cell line AZ-AHR incubated for 24 h with tested compounds.
(§7) AZ-AHR cells were seeded in 96-well plates and stabilized for 16 h and then incubated for 24 h with enantiopure forms of atorvastatin, rosuvastatin and fluvastatin in concentration ranging from 10^−10 M to 10^−4 M in the absence (agonist mode–upper panels) or presence (antagonist mode–lower panels) of dioxin (TCDD; 5 nM). The vehicle was DMSO (0.1% v/v). After the treatments, cells were lysed and luciferase activity was measured. Treatments were performed in triplicates. Data are expressed as a fold induction of luciferase activity over control cells (agonist mode) or as a percentage of maximal activation attained by TCDD (antagonist mode). The values of EC50 and IC50 from n independent cell passages were calculated where appropriate and the average values are indicated in plots. Representative gene reporter assays are shown.

[4] = target: T3, aryl hydrocarbon receptor (AhR); test: AhR gene reporter assay in AZ-AHR cells; settings: 24 h; for IC50: AhR antagonist IC50, antagonist mode, in presence of TCDD 5 nM
Procedure: as §5, §6, §7

CYP3A4 protein = settings: HH59, HH61, HH63; 48 h
Procedure: as §3
(§8) Total protein extracts were prepared from cells cultured on 6-well plates. Cells were washed twice with ice-cold PBS and scraped into 1 ml of PBS. The suspension was centrifuged (4500 rpm/5 min/4°C) and the pellet was resuspended in 150 μl of ice-cold lysis buffer (150 mM NaCl; 10 mM Tris pH 7.2; 0.1% (w/v) SDS; anti-protease cocktail, 1% (v/v) Triton X-100; anti-phosphatase cocktail, 1% (v/v) sodium deoxycholate; 5 mM EDTA). The mixture was vortexed and incubated for 10 min on ice and then centrifuged (15000 rpm/13 min/4°C). Supernatant was collected and the protein content was determined by the Bradford reagent.
All reagents used for running the simple western by Sally Sue ^TM were obtained from ProteinSimple (San Jose, California) and prepared according to manufacturer’s recommendations (http://www.proteinsimple.com/sally_sue.html). […] Antibody diluent, goat anti-rabbit secondary antibody, and goat anti-mouse secondary antibody were purchased from ProteinSimple. The capillaries, containing a proprietary UV-activated chemical linked reagent and 384-well plates were obtained from ProteinSimple. […] The resulting chemiluminescent signal was detected and quantified by the Compass Software version 2.6.5.0 (ProteinSimple). For quantitative data analysis, the CYPs signals were normalized to β-actin as a loading control.

CYP2B6 mRNA = settings: 10 μM
Procedure: as §3, §4

CYP2A6 protein = settings: 10 μM
Procedure: as §3, §8
(§9) All reagents used for running the simple western by Sally Sue ^TM were obtained from ProteinSimple (San Jose, California) and prepared according to manufacturer’s recommendations (http://www.proteinsimple.com/sally_sue.html). […] Antibody diluent, goat anti-rabbit secondary antibody, and goat anti-mouse secondary antibody were purchased from ProteinSimple. The capillaries, containing a proprietary UV-activated chemical linked reagent and 384-well plates were obtained from ProteinSimple. All samples and reagents were prepared according to the recommended ProteinSimple manual. Target proteins were identified using primary antibodies and immunoprobed using a horseradish peroxidase-conjugated secondary antibody and chemiluminescent substrate. The resulting chemiluminescent signal was detected and quantified by the Compass Software version 2.6.5.0 (ProteinSimple). For quantitative data analysis, the CYPs signals were normalized to β-actin as a loading control.

CYP2B6 protein = settings: 10 μM
Procedure: as §3, §8, §9

[5] = MTT cytotoxicity test in AZ-GR cells; format: cell-based; settings: human, AZ-GR cells (HeLa-derived GR luciferase reporter cell line)
Procedure: (§1) Prior to gene reporter assays, we examined the cytotoxicity of tested compounds in AZ-AHR, AZ-GR and LS180 cell lines. For this purpose, the cells were incubated for 24 h with individual enantiomers of atorvastatin, fluvastatin and rosuvastatin at concentrations ranging from 100 pM to 100 μM. The vehicle was DMSO (0.1% v/v). After the treatment, a conventional MTT test was performed and the values of IC50 were calculated.
(§2) Fig 2 Cytotoxicity of statin enantiomers in human cancer cell lines. […] After the treatment, a conventional MTT test was performed and absorbance was measured at 540 nm. Treatments were performed in triplicates.

CYP2C9 = system: CYP2C9; parameters: method as in PMID 8737761; settings: ratio to (+)3R,5S-fluvastatin; cited from earlier work
[6] = parameters: method as in PMID 19033449, PMID 16480934; settings: humans, ratio to (+)3R,5S-fluvastatin; cited from earlier work
[7] = MTT cytotoxicity test in LS180 cells; format: cell-based; settings: human, LS180 colon adenocarcinoma cells
Procedure: as §1, §2

[8] = MTT cytotoxicity test in AZ-AHR cells; format: cell-based; settings: human
Procedure: as §1, §2

## CC(C)c1nc(N(C)S(C)(=O)=O)nc(-c2ccc(F)cc2)c1C=CC(O)CC(O)CC(=O)O (stereo not shown) [3R5S-rosuvastatin]
[1]
  effect on rifampicin-inducible PXR transcriptional activity, in words: inverse U-shaped curve
[2]; DEX 100 nM
  effect on dexamethasone-inducible transcriptional activity of GR, in words: decreased
[2]
  IC50: 89.7 ± 12.6 µM
CYP2A6 mRNA; HH59, HH61, HH63, 24 h, 1, 10, 30 μM
  induction of CYP2A6 mRNA, in words: weak increase of CYP2A6 mRNA in culture HH61; also recorded: induced CYP2A6 mRNA
[3]
  EC50: > 100 µM
[4]
  IC50: 53.5 ± 60.4 µM
[4]; antagonist mode, TCDD 5 nM
  effect on TCDD-inducible transcriptional activity of AhR, in words: dose-dependently inhibited
CYP3A4 protein
  induction of CYP3A4 protein, in words: significant induction of CYP3A4 protein

## CO[C@H]1/C=C/O[C@@]2(C)Oc3c(C)c(O)c4c(O)c(c(/C=N/N5CCN(C)CC5)c(O)c4c3C2=O)NC(=O)/C(C)=C\C=C\[C@H](C)[C@H](O)[C@@H](C)[C@@H](O)[C@@H](C)[C@H](OC(C)=O)[C@@H]1C [rifampicin]
CYP2A6 mRNA; culture HH59, 24 h
  induction of CYP2A6 mRNA: 2.4 fold
CYP2A6 mRNA; culture HH61, 24 h
  induction of CYP2A6 mRNA: 5.2 fold
CYP2A6 mRNA; culture HH63, 24 h
  induction of CYP2A6 mRNA: 7.1 fold
CYP2B6 mRNA; culture HH59, 24 h
  induction of CYP2B6 mRNA: 5.8 fold
CYP2B6 mRNA; culture HH61, 24 h
  induction of CYP2B6 mRNA: 16 fold
CYP2B6 mRNA; culture HH63, 24 h
  induction of CYP2B6 mRNA: 6.9 fold
CYP2A6 protein; culture HH59, 48 h
  induction of CYP2A6 protein: 4.8 fold
CYP2A6 protein; culture HH61, 48 h
  induction of CYP2A6 protein: 7.3 fold
CYP2A6 protein; culture HH63, 48 h
  induction of CYP2A6 protein: 2.3 fold
CYP2B6 protein; culture HH59, 48 h
  induction of CYP2B6 protein: 8.4 fold
CYP2B6 protein; culture HH61, 48 h
  induction of CYP2B6 protein: 5.9 fold
CYP2B6 protein; culture HH63, 48 h
  induction of CYP2B6 protein: 7.7 fold

## CC(C)n1c(C=CC(O)CC(O)CC(=O)O)c(-c2ccc(F)cc2)c2ccccc21 (stereo not shown) [3S5R-fluvastatin, 3S5R- fluvastatin]
[5]
  IC50 at 24 h: > 100 µM
[1]; 100 μM concentration, agonist mode
  efficacy: average induction of PXR luciferase activity: approx. 5 fold
CYP2C9
  Ki values of CYP2C9 inhibition compared to (+)3R,5S-fluvastatin: four to five times higher
[6]
  AUC value compared to (+)3R,5S-fluvastatin: 1.8 times
[3]
  EC50: 14.4 ± 4.2 µM
[7]
  IC50 at 24 h: > 100 µM
[4]
  IC50: > 100 µM
[4]; agonist mode
  effect on AhR-dependent luciferase activity (agonist mode), in words: slightly increased luciferase activity
[8]
  IC50 at 24 h: > 100 µM

## CC(C)c1nc(N(C)S(C)(=O)=O)nc(-c2ccc(F)cc2)c1C=CC(O)CC(O)CC(=O)O (stereo not shown) [3S5R-rosuvastatin, 3S5R- rosuvastatin]
[1]
  effect on rifampicin-inducible PXR transcriptional activity, in words: not influenced
[2]
  IC50: > 100 µM
[3]
  EC50: > 100 µM
[4]
  IC50: > 100 µM
CYP3A4 protein
  induction of CYP3A4 protein, in words: significant induction of CYP3A4 protein
